Data as given in ChEMBL document CHEMBL3297712, “Chasing protons: how isothermal titration calorimetry, mutagenesis, and pKa calculations trace the locus of charge in ligand binding to a tRNA-binding enzyme” (J Med Chem, 2014).
pKd: −log10 of the molar value.

Tests used:
[1] = tested on: Zymomonas mobilis; experiment: Selectivity ratio of Kd for Zymomonas mobilis TGT D156N mutant to Kd for wild-type Zymomonas mobilis TGT
[2] = Binding affinity to wild-type Zymomonas mobilis TGT overexpressed in Escherichia coli BL21(DE3) by isothermal titration calorimetric analysis
[3] = Binding affinity to Zymomonas mobilis TGT D156N mutant expressed in Escherichia coli Rosetta 2(DE3) by isothermal titration calorimetric analysis
[4] = tested on: Zymomonas mobilis; experiment: Selectivity ratio of Kd for Zymomonas mobilis TGT D102N mutant to Kd for wild-type Zymomonas mobilis TGT
[5] = Binding affinity to Zymomonas mobilis TGT D102N mutant overexpressed in Escherichia coli BL21(DE3) by isothermal titration calorimetric analysis
[6] = Binding affinity to Zymomonas mobilis TGT E235Q mutant overexpressed in Escherichia coli BL21(DE3) by isothermal titration calorimetric analysis

| Selectivity ratio [1] | Selectivity ratio [4] | SMILES | pKd [2] | pKd [3] | pKd [5] | pKd [6] |
| --- | --- | --- | --- | --- | --- | --- |
| 4 | 3 | CNc1nc2cc3c(=O)[nH]c(N)nc3cc2[nH]1 | 7.28 | 6.73 | 6.84 | – |
| – | – | Cc1nc2cc3nc(N)[nH]c(=O)c3cc2[nH]1 | 6.54 | – | – | – |
| – | – | CNc1nc2cc3c(=O)[nH]cnc3cc2[nH]1 | 6.39 | – | – | – |
| – | – | Nc1nc2cc3[nH]c(NCCN4CCOCC4)nc3cc2c(=O)[nH]1 | 7.46 | – | – | 5.89 |
